Details: transdermal, 12 subjects
Method: Specifically, a single site, open label study was conducted on 12 subjects, with 4-way cross-over. Four (4) patches were applied for 2, 4, or 12 hours.

Compound: CCN(CC)CC(=O)Nc1c(C)cccc1C [lidocaine]
- rate of delivery, heated patch versus unheated patch: more rapidly
